# Experimental data published in US12685777B2, “Compositions, systems, and methods for modulating a target gene” (The Board of Trustees of the Leland Stanford Junior …, priority 2022, dated 2026).
# pEC50: −log10 of the molar value. Like-named read-outs stand apart in the source and are kept apart here.
# Key:
# [1] = system: KARPAS422; test: Cell viability (resazurin/PrestoBlue) of KARPAS422 DLBCL cells; format: cell-based, human
# Experimental: 30,000 cells were plated in 100 μL media per well of a 96 well plate and treated with drug for indicated times and doses. A resazurin-based indicator of cell health (PrestoBlue, ThermoFisher #P50200) was added for 1.5 hours after which the fluorescence ratio at 560/590 nm was recorded. The background fluorescence was subtracted and the signal was normalized to DMSO-treated cells. EC50 measurements on cell lines were done with 4 biological repeats by separate cell passages maintained by 3 independent investigators. Fit of dose-response curves to data and statistical analysis was performed using drc package in R using the four-parameter log-logistic function.
# These molecules were tested for their effect on viability of the chemotherapy (CHOP, or cyclophosphamide, hydroxydaunorubicin, Oncovin, and prednisone)-resistant DLBCL cell line, KARPAS422. […] Cell killing was essentially complete at 72 hours (FIG. 27, Panel D).
# [2] = system: gene expression in KARPAS422 cells; test: RNA-seq of drug-treated KARPAS422 cells; format: cell-based, human
# Experimental: 12. RNA Extraction, qPCR, and Sequencing Library Preparation Cells were plated at 1 M/mL and harvested in TRIsure (Bioline #38033). RNA was extracted using Direct-zol RNA MicroPrep columns (Zymo #R^2062) treated with DNAseI. cDNA was prepared for RT-qPCR using the SensiFAST cDNA preparation kit according to manufacturer instructions (Bioline #65054). 1 μL of cDNA was used per RT-qPCR reaction prepared with SYBR Lo-ROX (Bioline #94020). For sequencing library preparation, polyA-containing transcripts were enriched for (NEB #E7490S) and prepared into paired-end libraries (NEB #E7760S). Libraries were sequenced on an Illumina NovaSeq (Novogene). 13. Western Blots
# (www.bioinformatics.babraham.ac.uk/projects/fastqc/) and trimmed from adapters using cutadapt (Martin, M., EMBnet.journal (2011) 17: 10) using parameters cutadapt—a […] -b (SEQ ID NO:01) […] (SEQ ID NO:02) -nextseq-trim=20-minimum-length 1. Transcripts were quantified using kallisto (Bray et al., Nature Biotechnology (2016) 34: 525-527) against the human Gencode v33 indexed transcriptome and annotations. […] 15. ChIP-Seq Experiment and Library Preparation
# Because a high percentage of the TCIP1-treated cells contain fragmented DNA by TUNEL assay at 24 hours (FIG. 31, Panel E), many of the “reduced genes” could reflect DNA fragmentation as part of the apoptotic process and digestion to mononucleosomes. Among the group of genes whose expression was most reduced were MYC and its targets (FIGS. 33B, 36C). The top 100 most TCIP1-reduced genes were examined using ChIP-seq data of human transcription factors in blood cancer cell lines, and found the promoters of TCIP1-inhibited genes highly enriched for MYC binding in multiple datasets (FIG. 33, Panel C). This is significant since many DLBCLs are considered to be MYC-dependent.
# Almost all differential genes were increasingly activated at 4 hours compared to negligible effects of the control molecules Neg1 and Neg2 (FIG. 35, Panel B).
Compound,"pEC50 ([1]; Homo sapiens, KARPAS-422, KARPAS422 (CHOP-resistant, TP53-mutant DLBCL), 72 hours after addition of drug, read-out: EC50 of cell killing / cell viability)",BCL6 repressed genes activated ([2]; RNA-seq),"pEC50 ([1]; KARPAS422 (CHOP-resistant, TP53-mutant DLBCL), 72 hours after addition of drug, read-out: EC50 of cell killing / cell viability)","pEC50 ([1]; KARPAS422, without cell cycle arrest, read-out: EC50 of cell viability without arrest)","Number of genes activated ([2]; 10 nM, 2 hours, KARPAS422)","Median change of activated genes ([2]; 10 nM, 20 hours, KARPAS422)","Number of genes increased in expression ([2]; 10 nM, 20 hours, KARPAS422)","Number of genes reduced in expression ([2]; 10 nM, 20 hours, KARPAS422)","Increase of CDKN1A (p21) expression ([2]; RNA-seq, 20 hours, KARPAS422)"
"CNC(=O)COc1cc2cc(Nc3nc(N4CCC(C(=O)NCCCCCCCNC(=O)C[C@@H]5N=C(c6ccc(Cl)cc6)c6c(sc(C)c6C)-n6c(C)nnc65)CC4)ncc3Cl)cc(OC)c2n(C)c1=O [JWZ-7-7, (S)-1-(5-chloro-4-((8-methoxy-1-methyl-3-(2-(methylamino)-2-oxoethoxy)-2-oxo-1,2-dihydroquinolin-6-yl)amino)pyrimidin-2-yl)-N-(7-(2-(4-(4-chlorophenyl)-2,3,9-trimethyl-6H-thieno[3,2-f][1,2,4]triazolo[4,3-a][1,4]diazepin-6-yl)acetamido)heptyl)piperidine-4-carboxamide]",8.89,60%,–,–,–,–,–,–,–
CNC(=O)COc1cc2cc(Nc3nc(N4CCC(C(=O)NCCCCCCCNC(=O)C[C@@H]5N=C(c6ccc(Cl)cc6)c6c(sc(C)c6C)-n6c(C)nnc65)CC4)ncc3Cl)cc(OC)c2n(C)c1=O [TCIP1],–,–,8.89,8.96,140 genes,4 fold,"1,674 genes","1,364 genes",about 64 fold
